Target: G551D-CFTR (Homo sapiens, UniProt P13569, G551D)
Assay: short-circuit current in FRT cells, positive control potentiator
Assay type: cell-based

Chain of G551D-CFTR (P13569 whole entry G551D): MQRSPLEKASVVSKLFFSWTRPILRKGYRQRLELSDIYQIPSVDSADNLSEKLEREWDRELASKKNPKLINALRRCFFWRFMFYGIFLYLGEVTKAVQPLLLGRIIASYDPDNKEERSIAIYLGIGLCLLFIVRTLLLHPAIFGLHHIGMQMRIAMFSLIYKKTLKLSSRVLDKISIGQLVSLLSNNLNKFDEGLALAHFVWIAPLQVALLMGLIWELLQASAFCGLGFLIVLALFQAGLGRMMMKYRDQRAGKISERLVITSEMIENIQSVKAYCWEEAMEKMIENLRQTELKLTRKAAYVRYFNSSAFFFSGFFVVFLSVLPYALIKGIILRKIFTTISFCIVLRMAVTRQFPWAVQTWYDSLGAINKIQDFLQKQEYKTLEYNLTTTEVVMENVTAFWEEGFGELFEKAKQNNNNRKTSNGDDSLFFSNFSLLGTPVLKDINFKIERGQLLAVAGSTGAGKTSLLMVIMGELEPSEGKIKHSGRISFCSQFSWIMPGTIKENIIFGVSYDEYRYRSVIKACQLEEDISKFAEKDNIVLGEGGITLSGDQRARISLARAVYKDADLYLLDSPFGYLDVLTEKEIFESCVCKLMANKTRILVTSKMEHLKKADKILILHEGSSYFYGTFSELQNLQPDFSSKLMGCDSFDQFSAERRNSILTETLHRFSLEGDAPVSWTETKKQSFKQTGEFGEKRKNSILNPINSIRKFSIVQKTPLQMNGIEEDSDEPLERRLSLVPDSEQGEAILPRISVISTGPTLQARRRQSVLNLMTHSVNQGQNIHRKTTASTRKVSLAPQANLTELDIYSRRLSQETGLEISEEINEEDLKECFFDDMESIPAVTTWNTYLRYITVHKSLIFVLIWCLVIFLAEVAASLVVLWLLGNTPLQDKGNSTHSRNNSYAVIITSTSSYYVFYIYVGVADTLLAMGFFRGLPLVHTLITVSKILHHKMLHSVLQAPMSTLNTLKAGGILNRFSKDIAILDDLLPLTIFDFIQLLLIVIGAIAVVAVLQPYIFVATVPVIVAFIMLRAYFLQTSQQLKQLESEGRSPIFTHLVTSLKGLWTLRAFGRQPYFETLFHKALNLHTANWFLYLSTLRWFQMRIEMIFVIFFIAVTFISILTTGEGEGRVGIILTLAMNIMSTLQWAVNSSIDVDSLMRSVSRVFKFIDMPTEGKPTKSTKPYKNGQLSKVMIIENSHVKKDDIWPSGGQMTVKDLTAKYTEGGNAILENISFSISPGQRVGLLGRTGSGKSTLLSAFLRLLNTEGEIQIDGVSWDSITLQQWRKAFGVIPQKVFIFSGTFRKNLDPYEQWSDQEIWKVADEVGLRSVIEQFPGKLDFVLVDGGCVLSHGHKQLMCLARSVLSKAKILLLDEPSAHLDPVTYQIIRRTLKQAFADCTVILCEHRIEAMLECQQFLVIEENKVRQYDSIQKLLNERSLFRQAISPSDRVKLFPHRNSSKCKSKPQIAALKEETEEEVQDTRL

SMILES: CC(C)(C)c1cc(C(C)(C)C)c(NC(=O)c2c[nH]c3ccccc3c2=O)cc1O [VX-770]
- short-circuit current in FRT cells, positive control potentiator: A-01 did not activate G551D-CFTR at high concentration, with VX-770 shown as the positive control

Source: paper PMC6133293 (SLAS discovery : advancing life sciences R & D, 2018)
